The test system of data set [1] is primary normal human gingival fibroblasts. As to the kind of experiment: MTT cell viability assay, primary gingival fibroblasts. Type of data set: cell-based. As to conditions: 72 h, read-out: IC50 primary gingival fibroblast. Here is the method:
(§1) Human SCC-4, SCC-9, and SCC-25 cells, derived from a human oral tongue SCC (squamous cell carcinoma), were obtained from ATCC (CRL-1624, CRL-1629, and CRL-1628, respectively) and maintained in 1:1 DMEM/F12 (Dulbecco’s modified Eagle’s medium and Ham’s F12 medium; Gibco (Thermo Fisher, Waltham, MA, USA)) supplemented with 10% (v/v) FBS (fetal bovine serum; Invitrogen, Thermo Fisher, Waltham, MA, USA) and 400 ng/mL hydrocortisone (Sigma-Aldrich Corporation, St. Louis, MO, USA). B16-F10 (melanoma; CRL-6475), HCT-116 (colorectal cancer; CCL-247), and HepG2 (liver cancer; HB-8065), in addition to primary normal human gingival fibroblasts obtained from ATCC (PCS-201-018), were maintained in DMEM supplemented with 10% (v/v) of FBS and were used in a maximum of six passages. Cells were grown in a humidified environment containing 5% CO2 at 37 °C. For all biological assays, compounds and shikonin were solubilized in 100% DMSO (all Sigma-Aldrich Corp.) to a final concentration of 10 mM and lapachol in ethanol. The carboplatin control was prepared in water (Fauldcarbo; Libbs Farmacêutica, São Paulo, SP, Brazil) and was used as a standard anticancer compound.
(§2) The viability of OSCC cell lines and primary human fibroblast cells was assessed using the MTT assay as in ref . Briefly, cells were grown in triplicate in 96-well plates (5 × 10^3 cells/well) until confluence. Then, the medium was removed, fresh medium was added, and the cells were returned to the incubator in the presence of different compounds. DMSO at the same concentration was used as a control for 100% cell viability. After 72 h, cells were incubated with 0.5 mg/mL of MTT reagent (3-(4,5-dimethyl-2-thiazolyl)-2,5-diphenyl-2-H-tetrazolium bromide) (Sigma-Aldrich Corporation, Louis, MO, USA) for 3.5 h. Then, the wells containing the cells were washed with PBS heated to 37 °C, the formazan crystals were dissolved in a solvent solution (DMSO/methanol 1:1 v/v), and the absorbance was read at 560 nm using an EPOCH microplate spectrophotometer (BioTek Instruments, Winooski, VT, USA) with the background absorbance at 670 nm subtracted. Control chemotherapeutics (carboplatin and shikonin) were used.
(§3) Data are presented as means ± SD. IC50 values for the MTT assays were obtained by nonlinear regression using the […] 8.4.3.0 program (Intuitive Software for Science, San Diego, CA, USA) from at least three independent experiments. A dose–response curve (inhibitor) vs response using the least-squares method was used to determine the IC50, SD, and R2 of the data. The selectivity index was calculated as SI = IC50 of the compound in normal oral fibroblast cells/IC50 of the same compound for each oral cancer cell line (SCC-4, SCC-9, and SCC-25) and averaged when indicated.

Another data set relates to SCC-9 cells (OSCC cells). Description: MTT cell viability assay, SCC-9. The following applies: for SI (SCC-9): IC50 normal oral fibroblast / IC50 SCC-9. Type of data set: cell-based, human. The procedure:
as §1, §2, §3

The subject of the next data set is human erythrocytes. Description: Hemolysis assay. The format is cell-based. The following applies: 500 μM; Triton X-100 positive control. The procedure: To determine the surfactant power of the substances present in biological membranes, a hemolysis test was carried out with human blood approved by the Research Ethics Committee of the Universidade Federal Fluminense (CAAE: 43134721.4.0000.5626). Erythrocytes were collected for centrifugation at 1500 rpm for 15 min, washed with PBS (phosphate-buffered saline) supplemented with 10 mM glucose, and counted in an automatic cell counter (Thermo Fisher, Waltham, MA, USA). […] In total, 10 μL of PBS was used as a negative control, and 10 μL of PBS with 0.1% Triton x 100 was used as a positive control. Data reading was performed with EPOCH (BioTek Instruments, Winooski, VT, USA) at an absorbance of 540 nm, and statistical data were generated using […] Prism 8.4.3.0 program (Intuitive Software for Science, San Diego, CA, USA).

Data set [2] relates to HCT-116 (colorectal cancer). As to the kind of experiment: MTT cytotoxicity/selectivity, HCT-116. The format is cell-based. As to conditions: vs normal oral fibroblasts. Here is the method:
as §1
as §2, with “DMSO at the same concentration was used as a control for 100% cell viability. After 72 h, cells were incubated with 0.5 mg/mL of MTT reagent (3-(4,5-dimethyl-2-thiazolyl)-2,5-diphenyl-2-H-tetrazolium bromide) (Sigma-Aldrich Corporation, Louis, MO, USA) for 3.5 h.” left out, “Control chemotherapeutics (carboplatin and shikonin) were used.” left out
(§4) Data are presented as means ± SD. […] The selectivity index was calculated as SI = IC50 of the compound in normal oral fibroblast cells/IC50 of the same compound for each oral cancer cell line (SCC-4, SCC-9, and SCC-25) and averaged when indicated.

Another data set deals with B16-F10 (melanoma). Description: MTT cytotoxicity/selectivity, B16-F10. Type of data set: cell-based. The following applies: vs normal oral fibroblasts. The procedure:
as §1
as §2, with “DMSO at the same concentration was used as a control for 100% cell viability. After 72 h, cells were incubated with 0.5 mg/mL of MTT reagent (3-(4,5-dimethyl-2-thiazolyl)-2,5-diphenyl-2-H-tetrazolium bromide) (Sigma-Aldrich Corporation, Louis, MO, USA) for 3.5 h.” left out, “Control chemotherapeutics (carboplatin and shikonin) were used.” left out
as §4

For the next data set, the system named is SCC-25 cells. As to the kind of experiment: MTT cell viability assay, SCC-25. The format is cell-based, human. The following applies: for IC50: read-out: IC50 SCC-25. Here is the method:
as §1, §2, §3

Another data set deals with HepG2 (liver cancer). As to the kind of experiment: MTT cytotoxicity/selectivity, HepG2. The following applies: vs normal oral fibroblasts. Type of data set: cell-based. The procedure:
as §1
as §2, with “DMSO at the same concentration was used as a control for 100% cell viability. After 72 h, cells were incubated with 0.5 mg/mL of MTT reagent (3-(4,5-dimethyl-2-thiazolyl)-2,5-diphenyl-2-H-tetrazolium bromide) (Sigma-Aldrich Corporation, Louis, MO, USA) for 3.5 h.” left out, “Control chemotherapeutics (carboplatin and shikonin) were used.” left out
as §4

The subject of another data set is SCC-4 cells. As to the kind of experiment: MTT cell viability assay, SCC-4. The format is cell-based, human. The following applies: for IC50: read-out: IC50 SCC-4. Here is the method: as §1, §2, §3
Data set [3] concerns OSCC cell lines (SCC-4, SCC-9, and SCC-25). As to the kind of experiment: Average selectivity index over three OSCC cell lines (MTT). As to conditions: average of SI for SCC-4, SCC-9 and SCC-25 vs normal oral fibroblasts. The format is cell-based, human. Here is the method:
as §1, §2, §3

Data set [4] concerns esophageal squamous carcinoma cells. Set-up: method as in PMID 31225674. The following applies: inhibits RSK2 and induces intrinsic apoptosis in esophageal squamous carcinoma cells; cited from earlier work.
Setting [5] is: Homo sapiens, SCC-9, 72 h, MTT, read-out: IC50 SCC-9 oral cancer.

Values joined by “and” are separate entries in the source; they are usually repeats but may differ in a detail not shown here. Identical values can stand only once. Like-named read-outs stand apart in the source and are kept apart here.

For `Cc1ccccc1SC1C2=C(OC(C)(C)C1Sc1ccccc1C)C(=O)c1ccccc1C2=O` (centres unmarked) [7b, 2,2-Dimethyl-3,4-bis(o-tolylthio)-3,4-dihydro-2H-benzo[g]chromene-5,10-dione], the IC50 in [1] (Homo sapiens, Fibroblast, MTT) is 50.9 µM; in the data set with SCC-9 cells (OSCC cells) (setting [5]) it was 34.8 µM. The “SI (SCC-9)” value in the data set on SCC-9 cells (OSCC cells) is 1.5.
As for `Cc1ccc(SC2C3=C(OC(C)(C)C2Sc2ccc(C)cc2)C(=O)c2ccccc2C3=O)cc1` (centres unmarked) [7d, 2,2-Dimethyl-3,4-bis(p-tolylthio)-3,4-dihydro-2H-benzo[g]chromene-5,10-dione], the IC50 was 60.1 µM in data set [1] (Homo sapiens, Fibroblast, MTT) and 30.9 µM in the data set on SCC-9 cells (OSCC cells) (setting [5]). Moreover, the “SI (SCC-9)” value in the data set with SCC-9 cells (OSCC cells) came to 1.9.
Consider Triton X-100, for which, in the data set on human erythrocytes, the “% Hemolysis (Mean ± SD)” value was 100% and 99.6 ± 2.51%.
As for `CC1(C)OC2=C(C(=O)c3ccccc3C2=O)C(Sc2ccc(O)cc2)C1Sc1ccc(O)cc1` (centres unmarked) [7i, 3,4-Bis((4-hydroxyphenyl)thio)-2,2-dimethyl-3,4-dihydro-2H-benzo[g]chromene-5,10-dione], the IC50 came to 32.6 µM in [1] (Homo sapiens, Fibroblast, MTT) and 17.2 µM in the data set on SCC-9 cells (OSCC cells) (setting [5]). Also, in the data set on SCC-9 cells (OSCC cells), the “SI (SCC-9)” value is 1.9.
As for `N.N.O=C([O-])C1(C(=O)[O-])CCC1.[Pt+2]` [Carboplatin, carboplatin, reference compound], the “% Hemolysis (Mean ± SD)” value with human erythrocytes is given as 1.34 ± 0.10%. Also, the “selective index (SI) HCT-116 colon cancer” value in [2] was 2.5. The IC50 in data set [1] (MTT) was 128 µM; in the data set with SCC-25 cells (72 h, MTT), 38.3 µM; in the data set with SCC-4 cells (72 h, MTT) it was 27.7 µM; in the data set on SCC-9 cells (OSCC cells) (72 h, MTT, read-out: IC50 SCC-9 oral cancer), 49.8 µM. In addition, the “selective index (SI) B16-F10 melanoma” value in the data set on B16-F10 (melanoma) is 5.5. The “selective index (SI) SCC-25” value with SCC-25 cells (vs normal oral fibroblasts) was 3.3. The “selective index (SI) HepG2 hepatocellular carcinoma” value in the data set with HepG2 (liver cancer) is listed as 7.1. Moreover, in the data set on SCC-4 cells (vs normal oral fibroblasts), the “selective index (SI) SCC-4” value was 4.6. For the same compound, the “SI (SCC-9)” value in the data set with SCC-9 cells (OSCC cells) is on record as 2.6. The “average SI” value in data set [3] stood at 3.5.
On to `CC(C)=CC[C@@H](O)C1=CC(=O)c2c(O)ccc(O)c2C1=O` [Shikonin, shikonin, reference compound], for which the 50% inhibitory concentration (IC50) is 2.2 µM in [1] (Homo sapiens, Fibroblast); 0.6 µM in the data set on SCC-25 cells (Homo sapiens, SCC-25, 72 h); 1.6 µM in the data set on SCC-4 cells (Homo sapiens, SCC-4, 72 h); 2.1 µM in the data set on SCC-9 cells (OSCC cells) (Homo sapiens, SCC-9, 72 h, read-out: IC50 SCC-9 oral cancer, 72 h, MTT). Besides, in the data set on SCC-9 cells (OSCC cells), the “SI (SCC-9)” value turned out to be 1.0. For the same compound, the “average SI” value in [3] is 2.0.
Turning to `CC1(C)OC2=C(C(=O)c3ccccc3C2=O)C(Sc2ccc(Cl)cc2)C1Sc1ccc(Cl)cc1` (centres unmarked) [7h, 3,4-Bis((4-chlorophenyl)thio)-2,2-dimethyl-3,4-dihydro-2H-benzo[g]chromene-5,10-dione], the IC50 in data set [1] (Homo sapiens, Fibroblast, MTT) stood at 43 µM; in the data set with SCC-9 cells (OSCC cells) (setting [5]), 33.3 µM. Besides, the “SI (SCC-9)” value with SCC-9 cells (OSCC cells) worked out at 1.3.
Take `CC1(C)OC2=C(C(=O)c3ccccc3C2=O)C(Sc2ccc(F)cc2)C1Sc1ccc(F)cc1` (centres unmarked) [7f, 3,4-Bis((4-fluorophenyl)thio)-2,2-dimethyl-3,4-dihydro-2H-benzo[g]chromene-5,10-dione]: the IC50 in data set [1] (Homo sapiens, Fibroblast, MTT) came to 40 µM; in the data set with SCC-9 cells (OSCC cells) (setting [5]) it was 35.3 µM. Moreover, the “SI (SCC-9)” value in the data set with SCC-9 cells (OSCC cells) is reported as 1.1.
Turning to `CC(C)=CCC1=C(O)C(=O)c2ccccc2C1=O` [lapachol], the IC50 in data set [4] was 2 µM.
For the compound `Cc1cccc(SC2C3=C(OC(C)(C)C2Sc2cccc(C)c2)C(=O)c2ccccc2C3=O)c1` (centres unmarked) [7c, 2,2-Dimethyl-3,4-bis(m-tolylthio)-3,4-dihydro-2H-benzo[g]chromene-5,10-dione], the IC50 in data set [1] (Homo sapiens, Fibroblast, MTT) is 40.8 µM; in the data set on SCC-25 cells (Homo sapiens, SCC-25, 72 h, MTT) it was 31.8 µM; with SCC-4 cells (Homo sapiens, SCC-4, 72 h, MTT) it was 30.2 µM; in the data set with SCC-9 cells (OSCC cells) (setting [5]) it was 15.3 µM. Moreover, the “SI (SCC-9)” value in the data set with SCC-9 cells (OSCC cells) is reported as 2.7. In data set [3], the “average SI” value came to 1.8.

Values taken from paper PMC12444508, “Mechanistic Insights into the Anticancer Action of Novel 2‑Hydroxy-1,4-naphthoquinone Thiol Derivatives” (ACS Omega, 2025).
